Experiments:
[1] = target: T1, Cytochrome P450 11B1, mitochondrial (Homo sapiens, UniProt P15538); assay: (§1) Inhibition Assay: The expression plasmids contains the ORF for either human/cyno CYP11B1 or CYP11B2 under the control of a suitable promoter (CMV-promoter) and a suitable resistance marker (neomycin). Using standard techniques the expression plasmid is transfected into G-402 cells and these cells are then selected for expressing the given resistance markers. Individual cell-clones are then selected and assessed for displaying the desired enzymatic activity using 11-Deoxycorticosterone (Cyp11B2) or 11-Deoxycortisol (Cyp11B1) as a substrate.G-402 cells expressing CYP11 constructs were established as described above and maintained in McCoy's 5a Medium Modified, ATCC Catalog No. 30-2007 containing 10% FCS and 400 μg/ml G418 (Geneticin) at 37° C. under an atmosphere of 5% CO2/95% air. Cellular enzyme assays were performed in DMEM/F12 medium containing 2.5% charcoal treated FCS and appropriate concentration of substrate (0.3-10 uM 11-Deoxycorticosterone, 11-Deoxycortisol or Corticosterone). For assaying enzymatic activity, cells were plated onto 96 well plates and incubated for 16 h. An aliquot of the supernatant is then transferred and analyzed for the concentration of the expected product (Aldosterone for CYP11B2; Cortisol for CYP11B1). The concentrations of these steroids can be determined using HTRF assays from CisBio analyzing either Aldosterone or Cortisol.
T1 sequence (P15538 whole entry): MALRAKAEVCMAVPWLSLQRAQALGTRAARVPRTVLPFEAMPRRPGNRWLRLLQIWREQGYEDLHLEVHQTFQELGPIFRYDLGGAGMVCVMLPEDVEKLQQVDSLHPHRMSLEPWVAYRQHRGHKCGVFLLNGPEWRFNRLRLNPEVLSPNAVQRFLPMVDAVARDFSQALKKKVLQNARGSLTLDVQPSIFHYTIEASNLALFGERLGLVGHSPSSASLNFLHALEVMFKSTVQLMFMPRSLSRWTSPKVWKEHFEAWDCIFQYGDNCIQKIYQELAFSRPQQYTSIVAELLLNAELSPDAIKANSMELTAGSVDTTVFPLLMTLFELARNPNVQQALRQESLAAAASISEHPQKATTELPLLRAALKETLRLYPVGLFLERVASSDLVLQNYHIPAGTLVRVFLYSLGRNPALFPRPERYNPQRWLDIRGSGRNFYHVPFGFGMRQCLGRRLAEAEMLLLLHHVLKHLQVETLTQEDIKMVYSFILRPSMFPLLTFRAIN

[2] = target: T2, Cytochrome P450 11B2, mitochondrial (Homo sapiens, UniProt P19099); assay: as §1
T2 sequence (P19099 whole entry): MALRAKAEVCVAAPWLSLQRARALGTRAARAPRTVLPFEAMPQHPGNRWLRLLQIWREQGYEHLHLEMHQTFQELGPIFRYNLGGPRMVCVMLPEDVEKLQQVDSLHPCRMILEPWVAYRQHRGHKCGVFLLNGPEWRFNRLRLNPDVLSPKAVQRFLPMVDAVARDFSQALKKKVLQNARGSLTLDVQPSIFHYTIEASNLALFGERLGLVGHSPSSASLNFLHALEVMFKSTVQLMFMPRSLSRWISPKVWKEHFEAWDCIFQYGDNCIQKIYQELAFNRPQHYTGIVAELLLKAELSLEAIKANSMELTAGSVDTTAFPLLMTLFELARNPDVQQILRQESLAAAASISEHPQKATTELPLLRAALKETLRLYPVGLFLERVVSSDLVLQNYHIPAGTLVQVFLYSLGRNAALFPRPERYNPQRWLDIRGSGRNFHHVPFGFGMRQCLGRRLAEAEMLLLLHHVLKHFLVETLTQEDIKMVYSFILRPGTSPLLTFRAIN

SMILES: CN1C(=O)CCc2c1ccc(-c1n[nH]cc1CC1CCN(C(=O)c3ccnn3C)CC1)c2F
- EC50 [1]: 0.076 nM

SMILES: CN1C(=O)CCc2c1ccc(-c1n[nH]cc1CC1CCN(S(=O)(=O)c3ccnn3C)CC1)c2F
- EC50 [1]: 0.704 nM
- EC50 [2]: 0.014 nM

SMILES: CC(=O)N1CCC(C(C)c2c[nH]nc2-c2ccc3c(c2F)CCC(=O)N3C)CC1 (racemic)
- EC50 [1]: 0.049 nM

SMILES: CC(=O)N1CCC(C(C)c2c[nH]nc2-c2cc3c(cc2F)N(C)C(=O)CC3)CC1 (racemic)
- EC50 [1]: 0.067 nM

SMILES: CC(=O)N1CCC([C@@H](C)c2c[nH]nc2-c2ccc3c(c2F)CCC(=O)N3C)CC1 (single isomer, unassigned)
- EC50 [1]: 0.074 nM
- EC50 [2]: 0.012 nM

SMILES: CC(=O)N1CCC([C@H](C)c2c[nH]nc2-c2ccc3c(c2F)CCC(=O)N3C)CC1 (single isomer, unassigned)
- EC50 [2]: 0.064 nM

Reference: ChEMBL document CHEMBL5726546, “Dihydroquinoline pyrazolyl compounds” (2017)
